Source: patent US20120264810A1, “COMPOSITIONS AND METHODS FOR ENHANCING CELLULAR UPTAKE AND INTRACELLULAR DELIVERY OF LIPID PARTICLES” (The University of British Columbia, priority 2009, published 2012)

Tests used:
[1] = test system: GAPDH protein expression in LNCaP cells; test: GAPDH siRNA-LN knockdown in LNCaP cells; type: cell-based, human; settings: data not shown
Protocol: FIG. 5: Raw264.7 cells were treated for 24 hours with siRNACy3 encapsulated in DLinDMA LNs in the presence or absence of 5% CQ-lipid. A lipid label, SPDiO, was incorporated into the LN to monitor uptake. LN uptake was assessed by (A) SPDiO fluorescence and distribution of siRNA was assessed by (B) Cy3 fluorescence using the Cellomics ArrayScan VTI. (C) Raw264.7 cells were incubated with the same LN formulations as in (B) for 24 hours at 10 μg/mL siRNACy3. siRNACy3 distribution was examined by confocal microscopy. (D) GAPDH siRNA was formulated into LN particles comprising of 40% DLinDMA with 0% CQ-lipid or 40% DLinDMA with 5% CQ-lipid. Raw264.7 cells were treated with 5, 10 and 20 μg/mL of siRNA for 48 and 72 hours. GAPDH protein expression was assessed by western blotting against anti-GAPDH and anti-actin. (E) LNCaP cells were treated accordingly as in (D).
Perhaps most importantly, we wanted to determine whether the enhanced cytosolic distribution of siRNACy3 observed with the CQ-lipid correlated to enhanced gene knockdown. Glyceraldehyde 3-phosphate dehydrogenase (GAPDH) is an ubiquitously expressed cytosolic protein and therefore knockdown efficiency of encapsulated siRNA can be tested in different cell lines (Barber et al., 2005). Raw264.7 cells were treated with LN of varying concentration of GAPDH siRNA for 24, 48 and 72 hours. Total protein was isolated and analyzed for GAPDH levels by immunoblotting. […] The function of GAPDH siRNA was specific since actin expression was unaltered (FIG. 5D). To confirm the function of the CQ-lipid in the LN-siRNA-mediated gene knockdown, GAPDH silencing was also assessed in LNCaP cells (FIG. 5E).

[2] = test system: GAPDH expression in HeLa cells; test: siGAPDH-LNP knockdown by immunoblotting in HeLa cells; type: cell-based, human
Protocol: HeLa cells were plated in twelve-well plates for indicated times. They were then washed in PBS and extracted in RIPA buffer (1% NP-40 and 0.5% Deoxycholic in 1×PBS) supplemented with protease inhibitor tablets (Roche Diagnostics). Total protein quantified by the Bradford Assay was analyzed by immunoblotting using antibodies to GAPDH, β-actin (Abcam, Cambridge, Mass.) or ATP1A1 ((Millipore, Billerica, Mass.). Antigen-antibody complexes in immunoblots were detected using Millipore Immobilon Western Chemiluminescent HRP Substrate (Millipore, Billerica, Mass.).
Knockdown effect of our LNP systems in the presence or absence of ouabain was also examined (FIG. 9B). GAPDH was chosen as a target gene since it is ubiquitously expressed at high levels in all cell types. siGAPDH or negative control siScramble was encapsulated in our LNP systems and incubated with cells for 24 hrs in the presence or absence of ouabain. Cells were further incubated in plain medium for 48 hrs before protein expression was analyzed. We observed that cells incubated continuously with ouabain for longer than 24 hrs were unhealthy (data not shown). […] It is noteworthy that LNP encapsulating siGAPDH or siScramble contained 1 mol % of PEG-s-DMG. […]

HeLa cells = test: LNP uptake in HeLa cells (SPDiO fluorescence, Cellomics / confocal); type: cell-based, human; settings: 30 nM ouabain, 24 hrs, confocal quantification
Protocol: All cell lines were seeded at 5000 to 20,000 cells/well of 96-well ViewPlate (PerkinElmer, Shelton, Conn., USA) in 100 μl of medium and were allowed to grow overnight. Fresh medium containing 5 or 10 μg/ml of siRNA encapsulated in LNP was added the next day. Small molecules were either added manually or pinned from 1000-fold stocks in DMSO using a pinning robot equipped with 0.4 mm pins (BioRobotics, Cambridge, UK). Cells were incubated for 24 h. Cells were then washed once in PBSCM (1×PBS containing […] CaCl2), fixed in 3% paraformaldehyde containing Hoescht's stain for 15 min, washed once in PBSCM and stored in 100 μl of PBSCM.
Plates were imaged using a Cellomics Arrayscan VTI HCS Reader (Thermo Scientific, Pittsburgh, Pa., USA). Images were acquired using a 20× PlanFluor objective and a XF93 filter set. Object identification and image analysis were performed using the Cellomics Compartmental Analysis algorithm. Cellular SPDiO and siRNA-Cy3 fluorescence intensities were measured for a minimum of 400 cells and the average pixel intensity was examined. For confocal microscopy, cells grown on glass coverslips were washed once in 1×PBS, fixed in 3% paraformaldehyde containing Hoechst's stain for 15 min, washed again and mounted on slides. Images were captured on an Olympus FV1000 (Olympus, Center Valley, Pa., USA) laser scanning microscope and cellular SPDiO fluorescence intensity was analyzed using ImageJ (NIH, http://rsb.info.nih.gov/ij/).

[3] = target: human α1-isoform of Na+/K+-ATPase (Homo sapiens, UniProt P05023); settings: cited from earlier work
[4] = target: rodent α1-isoform of Na+/K+-ATPase (Rattus norvegicus, UniProt P06685); settings: cited from earlier work

In the case of C[C@@H]1O[C@@H](O[C@H]2C[C@@H](O)[C@]3(CO)[C@H]4[C@H](O)C[C@]5(C)[C@@H](C6=CC(=O)OC6)CC[C@]5(O)[C@@H]4CC[C@]3(O)C2)[C@H](O)[C@H](O)[C@H]1O [ouabain], the “GAPDH knockdown with ouabain” value [1] is reported as “enhanced GAPDH knockdown”, the “cell health on continuous incubation” value ([2]; incubated continuously with ouabain for longer than 24 hrs (data not shown)) is reported as “unhealthy” and the “Expression of GAPDH” value ([2]; siGAPDH-LNP 10 ug/ml with 30 nM ouabain 24 h, then 48 hrs fresh medium) is reported as “substantially reduced”. For the same compound, the “cellular SPDiO fluorescence (LNP content) relative to untreated cells” value (HeLa cells) was 2.5 times, the sensitivity to ouabain [3] was “highly sensitive” and the “sensitivity to ouabain, less than human α1-isoform” value [4] was 1000 fold.
